The nature of data set [1]: Freeze-thaw stability of derivatives (freeze-thaw yield by liquid chromatography). The format is physicochemical. Particulars: for Dissolution property: appearance after dissolution at 0.2 mg/ml in 20 mM phosphate buffer solution (PB) (pH 7.0); for Freeze storage property: appearance after overnight storage at −20° C. and thawing to room temperature, 0.2 mg/ml in 20 mM PB (pH 7.0); for Freeze storage yield: concentration of polypeptide after freezing and thawing / concentration before, by liquid chromatography, −20° C. overnight. The gist of the method:
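Freeze-thaw yield is the ratio of peptide concentration after versus before one overnight −20° C freeze and room-temperature thaw, both quantified by RP-HPLC of supernatant after centrifugation. Samples were 0.2 mg/ml freeze-dried derivative in 20 mM PB, pH 7.0.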

Data set [2] is described as follows: Study on fatty acid side chain of derivatives, weight reduction in SD rats (Example 7). It is filed as in vivo. Particulars: subcutaneous, 30 nmol/kg. The source says: SD rats obtained by the same method as in Example 5 were used in this experimental study. There were an experimental group E: for testing weight reduction effects of the compounds PD065 and PD187, and an experimental group F: for testing the compounds PD065, PD071, PD140, PD144, PD145, PD146 and PD147, with 5 to 8 rats in each group of the derivative test, and the rats in each group were subcutaneously administered with a derivative or a solvent by a dosage of 30 nmol/kg. The administration time of each group was recorded. After administration, the rats were put back into their cages in which food and water available for the rats were placed. Food consumption and weight changes of the rats were recorded every 24 hours by online recording or manual recording.

The next data set deals with T1, human amylin receptor (Homo sapiens, UniProt O60896+P30988).
T1 construct: host or cells: CHO-K1/Ga15/AMY3 cells, further stably transfected with a CRE-luciferase plasmid
T1 sequence (P30988 25-474): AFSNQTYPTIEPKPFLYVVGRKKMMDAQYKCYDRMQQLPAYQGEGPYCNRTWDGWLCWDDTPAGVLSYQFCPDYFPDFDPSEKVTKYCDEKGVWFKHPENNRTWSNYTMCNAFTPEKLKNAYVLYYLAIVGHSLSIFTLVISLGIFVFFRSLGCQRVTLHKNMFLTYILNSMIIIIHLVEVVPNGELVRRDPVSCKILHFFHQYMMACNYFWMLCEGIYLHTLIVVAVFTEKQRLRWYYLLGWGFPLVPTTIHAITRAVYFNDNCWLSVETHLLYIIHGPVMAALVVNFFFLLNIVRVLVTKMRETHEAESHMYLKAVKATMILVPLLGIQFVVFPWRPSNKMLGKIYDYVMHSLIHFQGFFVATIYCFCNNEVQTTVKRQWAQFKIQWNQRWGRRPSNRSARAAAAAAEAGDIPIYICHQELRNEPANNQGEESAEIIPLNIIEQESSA
T1 sequence (O60896 24-148 partner): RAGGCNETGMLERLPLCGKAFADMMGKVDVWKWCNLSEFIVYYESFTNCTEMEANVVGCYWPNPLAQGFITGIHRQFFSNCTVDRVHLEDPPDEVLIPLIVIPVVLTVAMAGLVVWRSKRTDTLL
Put plainly: Luciferase assay of amylin derivatives in amylin receptor/CRE-luc CHO cell line. The format is cell-based. Particulars: EC50, CHO-K1/Ga15/AMY3 CRE-luc cells, 24 hours incubation, F12 medium containing 10% FBS.

Data set [3] is classed as physicochemical. The settings on record: 40° C. As to the method:
The penicillin bottle after covering was placed in a stability test box at 40° C. Before testing, a sample was centrifuged at 10,000 rpm and 4° C. for 3 minutes, and a supernatant was taken and added into a liquid-phase sample injection bottle. The sample was detected by the liquid phase method in Example 3.

The nature of data set [4]: Weight loss efficacy of derivatives in SD rats (Example 5). The settings on record: subcutaneous, 30 nmol/kg. It is filed as in vivo, SD (Sprague Dawley) rats. The source says:
SD (Sprague Dawley) rats weighing 200 g to 250 g were selected for this experimental study. Before the experiment, the rats arrived for at least 10 days to 14 days to adapt to the experimental environment. During this period, the rats were fed for two weeks in a reversed light/dark stage (meaning that the light was turned off during the day and turned on during the night) after arrival, and were fed separately in the first week of arrival to ensure accurate data and high test sensitivity, and the rats were free to obtain food and water during the whole adaptation period and experimental period. There were an experimental group [NT]5 and A6, and an experimental group B: B1, B2, B3, B4 and B5, with 5 to 8 rats in each treatment group of the derivative, and the rats in each group were subcutaneously administered with a derivative or a solvent by a dosage of 30 nmol/kg. The administration time of each group was recorded. After administration, the rats were put back into their cages in which the rats could get food and water. Food consumption and weight changes of the rats were recorded every 24 hours by online recording or manual recording. Weight and food intake changes of the SD rats in each group were as shown in FIG. 2A to FIG. 2D, Table 9 and Table 10.

A short description of data set [5]: Weight loss effect of dosage of derivatives in SD rats (Example 6). The format is in vivo. Particulars: subcutaneous. As to the method:
SD rats obtained by the same method as in Example 5 were used in this experimental study. There were an experimental group C: C1 to C13, and an experimental group D: D1 to D7, with 5 to 8 rats in each group of the derivative test, and according to administration schemes as shown in Table 11 and Table 12, the rats in each group […] The administration time of each group was recorded. After administration, the rats were put back into their cages in which the rats could get food and water. Food consumption and weight changes of the rats were recorded every 24 hours by online recording or manual recording. Weight and cumulative food intake changes of the SD rats in each group were as shown in FIG. 3A to FIG. 3D, FIG. 4A to FIG. 4B, Table 11 and Table 12.

Where [6] appears, read: experimental group C, 10 nmol/kg.
Setting [7] is: experimental group C, 30 nmol/kg.
The mark [8] stands for this setting: experimental group C, 100 nmol/kg.
Where [9] appears, read: experimental group D, 10 nmol/kg.
Where [10] appears, read: experimental group D, 30 nmol/kg.
[11] abbreviates: experimental group D, 100 nmol/kg.

“Also recorded” adds a separate entry of the source. Read-outs that look alike come from different tables or passages of the source. Bridge positions count the residues as written; N and C are the ends. Square brackets hold non-standard residues; d marks the D form. Primed or numbered codes have the meaning given here. Peptide text beside a SMILES is read from it. * marks the point of attachment. C20 diacid = O=C(O)CCCCCCCCCCCCCCCCCCC(=O)*; Hyp = O=C(O)[C@@H]1C[C@@H](O)CN1; Trx′ = not defined here; AEEA = NCCOCCOCC(=O)O

Method for human amylin receptor: The experiment was intended to detect the activity or efficacy of the amylin derivatives on a human amylin receptor in vitro by luciferase assay.
50 μL of growth medium (F12 medium containing 10% FBS) was added into each well of a white 96-well plate, and the stably transfected amylin/CRE-lue CHO cells were inoculated into the white 96-well plate at a density of about 20,000 cells/well for activity determination.

As to “PD146: KCNTATCATQRLADFLRHSSNNLKPILPPTNVGSNT-trans-Hyp-NH2; N-terminal; Trx + C20 diacid ({C20 diacid-Trx′}-KCNTATCATQRLADFLRHSSNNLKPILPPTNVGSNT-{trans‑Hyp-NH2}; disulfide 2-7 (inferred); reading uncertain; also: printed as KCNTATCATQRLADFLRHSSNNLKPILPPTNVGSNT-trans-Hyp-NH2)”, in data set [1], the Dissolution property result is listed as “Clear”, the Freeze storage property result is listed as “Clear” and the Freeze storage yield was found to be 101.09%. In addition, the “activity (weight reduction effect) compared with PD065” value in data set [2] was “better than that of the PD065”.
As for `CC[C@H](C)[C@H](NC(=O)[C@@H]1CCCN1C(=O)[C@H](CCCCN)NC(=O)[C@H](CC(C)C)NC(=O)[C@H](CC(N)=O)NC(=O)[C@H](CC(N)=O)NC(=O)[C@H](CO)NC(=O)[C@H](CO)NC(=O)[C@H](Cc1c[nH]cn1)NC(=O)[C@H](CCCNC(=N)N)NC(=O)[C@H](CC(C)C)NC(=O)[C@H](Cc1ccccc1)NC(=O)[C@H](CC(=O)O)NC(=O)[C@H](C)NC(=O)[C@H](CC(C)C)NC(=O)[C@H](CCCNC(=N)N)NC(=O)[C@H](CCC(N)=O)NC(=O)[C@@H](NC(=O)[C@H](C)NC(=O)[C@@H]1CSSC[C@H](NC(=O)[C@H](CCCCN)NC(=O)COCCOCCNC(=O)COCCOCCNC(=O)CCCCCCCCCCCCCCCCCCC(=O)O)C(=O)N[C@@H](CC(N)=O)C(=O)N[C@@H]([C@@H](C)O)C(=O)N[C@@H](C)C(=O)N[C@@H]([C@@H](C)O)C(=O)N1)[C@@H](C)O)C(=O)N[C@@H](CC(C)C)C(=O)N1CCC[C@H]1C(=O)N1CCC[C@H]1C(=O)N[C@H](C(=O)N[C@@H](CC(N)=O)C(=O)N[C@H](C(=O)NCC(=O)N[C@@H](CO)C(=O)N[C@@H](CC(N)=O)C(=O)N[C@H](C(=O)N1C[C@H](O)C[C@H]1C(N)=O)[C@@H](C)O)C(C)C)[C@@H](C)O` [PD187] ({C20 diacid-AEEA-AEEA}-KCNTATCATQRLADFLRHSSNNLKPILPPTNVGSNT[Hyp]-NH2; disulfide 2-7 (inferred)), at human amylin receptor, the midpoint of the response, the EC50, lay at 0.016 nM. Also, the “activity (weight reduction effect) compared with PD065” value in data set [2] was “better than that of the PD065; also recorded: better weight reduction effect”.
Consider `CC[C@H](C)[C@H](NC(=O)[C@@H]1CCCN1C(=O)CNC(=O)[C@H](Cc1ccccc1)NC(=O)[C@H](CC(N)=O)NC(=O)[C@H](CC(N)=O)NC(=O)[C@H](CO)NC(=O)[C@H](CO)NC(=O)[C@H](Cc1c[nH]cn1)NC(=O)[C@H](CCCNC(=N)N)NC(=O)[C@H](CC(C)C)NC(=O)[C@H](Cc1ccccc1)NC(=O)[C@H](CCC(=O)O)NC(=O)[C@H](C)NC(=O)[C@H](CC(C)C)NC(=O)[C@H](CCCNC(=N)N)NC(=O)[C@H](CCC(N)=O)NC(=O)[C@@H](NC(=O)[C@H](C)NC(=O)[C@@H]1CSSC[C@H](NC(=O)[C@H](CCCCN)NC(=O)CC[C@H](NC(=O)CCCCCCCCCCCCCCCCCCC(=O)O)C(=O)O)C(=O)N[C@@H](CC(N)=O)C(=O)N[C@@H]([C@@H](C)O)C(=O)N[C@@H](C)C(=O)N[C@@H]([C@@H](C)O)C(=O)N1)[C@@H](C)O)C(=O)N[C@@H](CC(C)C)C(=O)N1CCC[C@H]1C(=O)N1CCC[C@H]1C(=O)N[C@H](C(=O)N[C@@H](CC(N)=O)C(=O)N[C@H](C(=O)NCC(=O)N[C@@H](CO)C(=O)N[C@@H](CC(N)=O)C(=O)N[C@H](C(=O)N1CCC[C@H]1C(N)=O)[C@@H](C)O)C(C)C)[C@@H](C)O` [PD065, Cagrilintide], for which the EC50 – broadly, the concentration needed to bring the measured effect to its halfway point – at human amylin receptor came out at 0.038 nM. In addition, the Dissolution property entry in data set [1] was “Clear”. Moreover, in data set [1], the Freeze storage property entry is given as “Clear”. The compound also showed a Freeze storage yield in data set [1] of 93.44%. For the same compound, the “Decrease percentage of protein concentration” value is reported as 0.00% in data set [3] (pH about 7.4, 0 d); 22.35% in data set [3] (pH about 7.4, 7 d); 46.78% in data set [3] (pH about 7.4, 15 d). Also, the Protein concentration in data set [3] (pH about 7.4, 0 d) came to 0.81 mg/mL; in data set [3] (pH about 7.4, 7 d), 0.63 mg/mL; in data set [3] (pH about 7.4, 15 d), 0.43 mg/mL. Besides, the entries for the “Weight change rate at 48th hour” value in data set [4] (experimental group A) and in data set [4] (experimental group B) were −6.13 and −6.74, respectively. Moreover, the “Cumulative food intake at 72nd hour” value came out at 78.31 g in data set [5] (setting [6]); 60.22 g in data set [5] (setting [7]); 44.41 g in data set [5] (setting [8]); 64.27 g in data set [5] (setting [9]); 48.00 g in data set [5] (setting [10]); 33.89 g in data set [5] (setting [11]). For the same compound, the “Weight change rate at 72nd hour” value in data set [5] (setting [6]) is listed as 1.59%; in data set [5] (setting [7]) it was 0.46%; in data set [5] (setting [8]) it was −6.61%; in data set [5] (setting [9]), 5.95%; in data set [5] (setting [10]), 2.81%; in data set [5] (setting [11]) it was −3.81%.

The values above are taken from US20260166128A1, “HUMAN AMYLIN ANALOG, AND DERIVATIVE THEREOF AND USE THEREOF” (priority 2022, published 2026).
